Results reported in patent publication US10420768B2, “Pyrrolopyrimidine derivatives as NR2B NMDA receptor antagonists” (Rugen Holdings (Cayman) Limited, priority 2014, dated 2019).

What was measured:
rats [1] = assay: Electroconvulsive threshold (ECT) test; format: in vivo, rat
rats [2] = assay: Haloperidol-induced catalepsy (HIC) model; format: in vivo, rat; conditions: positive control 8 mg/kg
mice (strain NLMN) = assay: Forced swim test; format: in vivo, mouse; conditions: positive control 32 mg/kg IP

## Cn1c(=O)c2[nH]cnc2n(C)c1=O [theophylline, Theophylline]
Rats [1]; positive control 128 mg/kg p.o.
  proconvulsant activity (electroconvulsive threshold): showed the expected pro- and anticonvulsant activities

## CC(N)Cc1ccccc1 (stereo not shown) [amphetamine]
Rats [2]
  anticataleptic activity (catalepsy score): showed the expected robust anticataleptic activity

## CN(C)CCCN1c2ccccc2CCc2ccccc21 [imipramine]
Mice (strain NLMN)
  antidepressant activity (immobility time): showed the expected antidepressant activity

## CN1C(=O)CN=C(c2ccccc2)c2cc(Cl)ccc21 [diazepam]
Rats [1]; positive control 16 mg/kg p.o.
  anticonvulsant activity (electroconvulsive threshold): showed the expected pro- and anticonvulsant activities
